From ChEMBL document CHEMBL1156956, “Triazines incorporating (R)-3-methylmorpholine are potent inhibitors of the mammalian target of rapamycin (mTOR) with selectivity over PI3Kalpha” (Bioorg Med Chem Lett, 2010)

How the values were obtained:
[1] = target: Serine/threonine-protein kinase mTOR (Rattus norvegicus, UniProt P42346); assay: Inhibition of rat brain mTOR assessed as p70S6k-GST protein phosphorylation after 30 mins by ELISA
[2] = Growth inhibition of human MDA468 cells after 3 days by MTS assay; format: functional, cell-based; settings: MDA-MB-468, 72 h
LNCaP = assay: Growth inhibition of human LNCAP cells after 3 days by MTS assay; format: functional, cell-based; settings: 72 h
[3] = target: Phosphatidylinositol 4,5-bisphosphate 3-kinase catalytic subunit alpha isoform (Homo sapiens, UniProt P42336); assay: Inhibition of PI3Kalpha assessed as PIP3 accumulation after 24 mins by HTRF assay
Sequence of Phosphatidylinositol 4,5-bisphosphate 3-kinase catalytic subunit alpha isoform (P42336 whole entry, canonical isoform): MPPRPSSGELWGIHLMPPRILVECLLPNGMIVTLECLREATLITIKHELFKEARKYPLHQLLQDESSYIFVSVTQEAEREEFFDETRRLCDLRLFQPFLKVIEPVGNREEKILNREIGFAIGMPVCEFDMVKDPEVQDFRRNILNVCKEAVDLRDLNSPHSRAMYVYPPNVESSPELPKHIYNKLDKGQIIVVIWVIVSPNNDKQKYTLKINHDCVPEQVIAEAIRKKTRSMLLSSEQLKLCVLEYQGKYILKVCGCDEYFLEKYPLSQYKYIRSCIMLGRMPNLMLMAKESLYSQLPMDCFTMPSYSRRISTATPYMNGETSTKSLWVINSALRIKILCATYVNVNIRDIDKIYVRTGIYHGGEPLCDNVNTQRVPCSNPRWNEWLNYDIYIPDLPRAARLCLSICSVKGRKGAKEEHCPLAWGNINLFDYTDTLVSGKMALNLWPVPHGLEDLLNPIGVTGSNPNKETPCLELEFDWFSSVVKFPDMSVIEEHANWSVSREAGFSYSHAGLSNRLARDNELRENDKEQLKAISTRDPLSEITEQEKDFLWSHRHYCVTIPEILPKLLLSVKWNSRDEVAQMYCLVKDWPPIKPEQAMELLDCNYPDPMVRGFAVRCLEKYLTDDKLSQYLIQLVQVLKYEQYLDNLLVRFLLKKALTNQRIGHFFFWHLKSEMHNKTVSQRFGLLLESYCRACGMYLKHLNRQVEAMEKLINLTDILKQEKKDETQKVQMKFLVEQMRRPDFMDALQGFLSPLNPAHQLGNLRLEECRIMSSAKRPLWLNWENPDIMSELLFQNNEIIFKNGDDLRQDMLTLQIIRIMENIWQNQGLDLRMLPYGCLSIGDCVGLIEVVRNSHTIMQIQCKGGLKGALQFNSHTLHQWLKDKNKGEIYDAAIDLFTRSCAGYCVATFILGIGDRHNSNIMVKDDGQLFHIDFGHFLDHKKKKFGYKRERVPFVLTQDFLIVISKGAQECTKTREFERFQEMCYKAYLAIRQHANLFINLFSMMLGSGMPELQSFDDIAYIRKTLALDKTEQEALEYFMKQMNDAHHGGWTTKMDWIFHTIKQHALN

| IC50 [1] [nM] | IC50 (LNCaP) [nM] | IC50 [3] [nM] | Compound | IC50 [2] [nM] |
| --- | --- | --- | --- | --- |
| 1.7 | 16 |  | C[C@@H]1COCCN1c1nc(-c2ccc(NC(=O)Nc3ccc(N4CCC(N(C)C)CC4)cc3)cc2)nc(C2CCOCC2)n1 | 38 |
| 1.9 |  |  | C[C@@H]1COCCN1c1nc(-c2ccc(NC(=O)Nc3ccc(N4CCC(N(C)C)CC4)cc3)cc2)nc(N2CCOC[C@H]2C)n1 | 80 |
| 0.2 |  |  | C[C@@H]1COCCN1c1nc(-c2ccc(NC(=O)Nc3ccncc3)cc2)nc(N2CCOC[C@H]2C)n1 | 40 |
| 0.5 |  | 55 | C[C@@H]1COCCN1c1nc(-c2ccc(NC(=O)Nc3ccc(C(=O)N4CCC(N(C)C)CC4)cc3)cc2)nc(N2CCOC[C@H]2C)n1 | 5 |
| 1.7 | < 0.8 |  | C[C@@H]1COCCN1c1nc(-c2ccc(NC(=O)Nc3ccc(C(=O)N4CCN(C)CC4)cc3)cc2)nc(N2CCOC[C@H]2C)n1 | < 0.8 |
| 1.1 | 3 |  | C[C@@H]1COCCN1c1nc(-c2ccc(NC(=O)Nc3ccc(N4CCN(C)CC4)cc3)cc2)nc(N2CCOC[C@H]2C)n1 | 10 |
|  |  |  | C[C@@H]1COCCN1c1nc(-c2ccc(NC(=O)Nc3ccc(N4CCN(C)CC4)nc3)cc2)nc(C2CCOCC2)n1 | 52 |
| 0.6 |  |  | C[C@@H]1COCCN1c1nc(-c2ccc(NC(=O)Nc3cccnc3)cc2)nc(C2CCOCC2)n1 | 80 |
| 0.7 | < 0.8 |  | CC(C)N1CCN(C(=O)c2ccc(NC(=O)Nc3ccc(-c4nc(C5CCOCC5)nc(N5CCOC[C@H]5C)n4)cc3)cc2)CC1 | < 0.8 |
| 0.8 | 2 |  | C[C@@H]1COCCN1c1nc(-c2ccc(NC(=O)Nc3ccc(N4CCNCC4)cc3)cc2)nc(C2CCOCC2)n1 | 9 |
| 1.7 | 12 |  | C[C@@H]1COCCN1c1nc(-c2ccc(NC(=O)Nc3ccc(N4CCN(C)CC4)nc3)cc2)nc(N2CCOC[C@H]2C)n1 | 40 |
| 2 | 21 |  | C[C@@H]1COCCN1c1nc(-c2ccc(NC(=O)Nc3ccc(CN(C)C)cc3)cc2)nc(N2CCOC[C@H]2C)n1 | 50 |
| 3.6 | 250 |  | C[C@@H]1COCCN1c1nc(-c2ccc(NC(=O)Nc3cccnc3)cc2)nc(N2C[C@@H]3C[C@H]2CO3)n1 | 300 |
| 1 | < 0.8 |  | C[C@@H]1COCCN1c1nc(-c2ccc(NC(=O)Nc3ccc(C(=O)N4CCN(C)CC4)cc3)cc2)nc(C2CCOCC2)n1 | < 0.8 |
| 0.5 | < 0.8 |  | C[C@@H]1COCCN1c1nc(-c2ccc(NC(=O)Nc3ccc(C(=O)N(C)C)cc3)cc2)nc(N2CCOC[C@H]2C)n1 | < 0.8 |
| 0.7 | 8 | 314 | C[C@@H]1COCCN1c1nc(-c2ccc(NC(=O)Nc3ccc(OCCN(C)C)cc3)cc2)nc(N2CCOC[C@H]2C)n1 | 45 |
| 0.2 | 12 |  | C[C@@H]1COCCN1c1nc(-c2ccc(NC(=O)Nc3cccnc3)cc2)nc(N2CCOC[C@H]2C)n1 | 100 |
| 0.7 | 1 |  | C[C@@H]1COCCN1c1nc(-c2ccc(NC(=O)Nc3ccc(N4CCN(C)CC4)cc3)cc2)nc(C2CCOCC2)n1 | 6 |
